In ChEMBL document CHEMBL5233246, “CT1-3, a novel magnolol-sulforaphane hybrid suppresses tumorigenesis through inducing mitochondria-mediated apoptosis and inhibiting epithelial mesenchymal transition” (Eur J Med Chem, 2020):
Activity calls are given as the source filed them. No cut-off for these calls is given here.

How the values were obtained:
NCI-H460 = assay: Cytotoxicity against human NCI-H460 cells assessed as reduction in cell viability at 10 uM incubated for 8 hr by CCK-8 assay; type: functional, cell-based
L02 = assay: Cytotoxicity against human L02 cells assessed as reduction in cell viability incubated for 8 hrs by CCK-8 assay; type: toxicity, cell-based; conditions: l02, 8 h

With C=CCc1ccc(O)c(-c2cc(CC=C)ccc2OCCSCCCCN=C=S)c1 as the compound, how does the Activity (NCI-H460) read?
Its Activity is “inactive”.

And the Activity (L02)?
Its Activity is “Non-Toxic”.
